Laboratory results from patent publication US20090124539A1, “Methods of treating infection” (priority 2007, published 2009).
Converted amounts (≈) assume the structure as drawn. Where two headings read alike, the source gives them in different places.

Key:
[1] = tested on: Enterococcus faecalis; test: MIC, broth microdilution (CLSI); format: cell-based; conditions: Enterococcus faecalis, read-out: MIC
Experimental: (§1) The solvent for all of the compounds was deionized water (DIW), and all of the compounds dissolved in the solvent. The stock solutions were allowed to stand in DIW for one hour at room temperature prior to testing to allow time for auto-sterilization.
(§2) The test organisms were originally received from clinical sources, or from the American Type Culture Collection. When received, the organisms were sub-cultured onto an appropriate agar medium. Following incubation, colonies were harvested from these plates and cell suspensions prepared and frozen at −80° C. On the day prior to assay, a frozen vial of each culture was thawed and the contents were streaked for isolation onto either Tryptic Soy Agar (Becton Dickinson, Sparks, Md.) or Tryptic Soy Agar (Enhanced Hemolysis; Becton Dickinson) supplemented with 5% sheep blood for streptococci. The agar plates were incubated overnight at 35° C. Staphylococcus aureus ATCC 29213 and Enterococcus faecalis ATCC 29212 were included as quality control isolates in the assay.
(§3) The test medium for the broth microdilution testing was Mueller Hinton II broth (MHB II; BBL# 212322, Lot # 6024003, Becton Dickinson). The broth was prepared at 1.05× normal weight/volume to offset the 5% volume of the drug solution in the final test plates.
(§4) CLSI guidelines recommend that Mueller-Hinton II broth be adjusted to contain 50 mg/L of Ca^++ ions for proper daptomycin MIC results. Since Mueller-Hinton II broth has already been adjusted by the manufacturer to contain approximately 25 mg/L of Ca^++ ions, an additional 25 mg/L of Ca^++ ions was adjusted with 10 mg/mL of CaCl2.2H2O (Lot# 084K0215; Sigma-Aldrich) added at a rate of 0.1 mL/L of broth, for each desired increment of 1 mg/L. This supplemented Mueller-Hinton II broth was used only in wells containing daptomycin.
(§5) MIC values were determined using a broth microdilution method as recommended by the Clinical and Laboratory Standards Institute (Clinical and Laboratory Standards Institute^a. Methods for Dilution Antimicrobial Susceptibility Tests for Bacteria That Grow Aerobically; Approved Standard-Seventh Edition. Clinical and Laboratory Standards Institute document M7-A7 [ISBN 1-56238-587-9]. Clinical and Laboratory Standards Institute, 940 West Valley Road, Suite 1400, Wayne, Pa. 19087-1898 USA, 2006). Automated liquid handlers (Multidrop 384, Labsystems, Helsinki, Finland; Biomek 2000 and Multimek 96, Beckman Coulter, Fullerton Calif.) were used to conduct serial dilutions and make liquid transfers.
(§6) Wells of two standard 96-well microdilution plates (Falcon 3918; Becton Dickinson) were filled with 150 μL of […] using the Multidrop 384. These plates were used to prepare the drug “mother plates” that provided the serial drug dilutions for replicate “daughter plates”. The Biomek 2000 was used to transfer 150 μl of each stock solution from the wells of column 1 of a deep well plate to the corresponding wells in column 1 of the mother plate and to make eleven 2-fold serial dilutions in the mother plates. The wells of column 12 contained no drug and were the organism growth control wells. Each mother plate has the capacity to create a total of 12 daughter plates.
(§7) The daughter plates were loaded with 180 μL of one of the media described above using the Multidrop 384. The wells of the daughter plates ultimately contained 180 μL of MHB II, 10 μL of drug solution, and 10 μL of bacterial inoculum prepared in broth appropriate to the test organism (1.05×). The daughter plates were prepared on the Multimek 96 instrument, which transferred 10 μL of drug solution from each well of the mother plate to each corresponding well of each daughter plate in a single step. […]

[2] = tested on: Staphylococcus epidermidis; test: MIC, broth microdilution (CLSI); format: cell-based; conditions: read-out: MIC
Experimental: as §1, §2, §3, §4, §5, §6, §7

[3] = tested on: Enterococcus faecium; test: MIC, broth microdilution (CLSI); format: cell-based; conditions: Enterococcus faecium, read-out: MIC
Experimental: (§8) The stock solutions were allowed to stand in DIW for one hour at room temperature prior to testing to allow time for auto-sterilization.
as §2, §3, §4, §5, §6
(§9) The daughter plates were loaded with 180 μL of one of the media described above using the Multidrop 384. The wells of the daughter plates ultimately contained 180 μL of MHB II, 10 μL of drug solution, and 10 μL of bacterial inoculum prepared in broth appropriate to the test organism (1.05×). The daughter plates were prepared on the Multimek 96 instrument, which transferred 10 μL of drug solution from each well of the mother plate to each corresponding well of each daughter plate in a single step.

[4] = tested on: Staphylococcus aureus; test: MIC, broth microdilution (CLSI); format: cell-based; conditions: Staphylococcus aureus, read-out: MIC
Experimental: as §8, §2, §3, §4, §5, §6, §9

[5] = tested on: Streptococcus pneumoniae; test: MIC, broth microdilution (CLSI); format: cell-based; conditions: Streptococcus pneumoniae, read-out: MIC
Experimental: as §1, §2, §3
For streptococci, lysed horse blood (Lot # H88621; Cleveland Scientific, Bath, Ohio) was added to the MHB II at a final concentration of 2%. […]
as §5, §6, §9
Standardized inoculum of each organism was prepared following Clinical and Laboratory Standards Institute (Clinical and Laboratory Standards Institute^b. Performance Standards for Antimicrobial Susceptibility Testing; Sixteenth Informational Supplement. CLSI document M100-S16 [ISBN 1-56238-588-7]. Clinical and Laboratory Standards Institute, 940 West Valley Road, Suite 1400, Wayne, Pa. 19087-1898 USA, 2006) methods. The inoculum for each organism was dispensed into sterile reservoirs divided by length (Beckman Coulter), and the Biomek 2000 was used to inoculate the plates. […]

[6] = tested on: Streptococcus pyogenes; test: MIC, broth microdilution (CLSI); format: cell-based
Experimental: as §1, §2, §3
For streptococci, lysed horse blood (Lot # H88621; Cleveland Scientific, Bath, Ohio) was added to the MHB II at a final concentration of 2%.
as §4, §5, §6, §7

[7] = tested on: Enterococcus faecalis; conditions: quality control range for Enterococcus faecalis ATCC 29212 (# 101); cited from earlier work
[8] = tested on: Staphylococcus aureus; conditions: quality control range for Staphylococcus aureus ATCC 29213 (# 100); cited from earlier work
[9] = ATCC29212, Enterococcus faecalis Micromyx # 101, VSE, CLSI QC strain (ATCC 29212)
[10] = Enterococcus faecalis Micromyx # 413, LZD^R from res. dev. or other
[11] = Enterococcus faecalis Micromyx # 486, Van A
[12] = Enterococcus faecalis Micromyx # 1088, Van B
[13] = Staphylococcus epidermidis Micromyx # 108, MRSE
[14] = Staphylococcus epidermidis Micromyx # 835, MSSE
[15] = Enterococcus faecium Micromyx # 750, Van^S
[16] = Enterococcus faecium Micromyx # 752, Van A
[17] = Enterococcus faecium Micromyx # 1120, Van B
[18] = Enterococcus faecium Micromyx # 1721, DAP^R
[19] = ATCC 29213 / MSSA, Staphylococcus aureus Micromyx # 100, MSSA, CLSI QC strain (ATCC 29213)
[20] = MRSA, Staphylococcus aureus Micromyx # 1004, MRSA, FA^R
[21] = MRSA, Staphylococcus aureus Micromyx # 1730, Community-acquired MRSA
[22] = MSSA, Staphylococcus aureus Micromyx # 1002, MSSA, macrolide^R
[23] = Staphylococcus aureus Micromyx # 106, RA^R
[24] = Staphylococcus aureus Micromyx # 1016, FA^R
[25] = Staphylococcus aureus Micromyx # 1651, LZD^R clinical isolate
[26] = Staphylococcus aureus Micromyx # 1727, GM^R
[27] = Staphylococcus aureus Micromyx # 1731, CHL^R
[28] = VISA, Staphylococcus aureus Micromyx # 1723, VISA
[29] = Streptococcus pneumoniae Micromyx # 374, Wild type
[30] = Streptococcus pneumoniae Micromyx # 379, parC, gyrA, gyrB
[31] = Streptococcus pneumoniae Micromyx # 927, mef(A)
[32] = Streptococcus pneumoniae Micromyx # 928, erm(B)
[33] = Streptococcus pyogenes Micromyx # 942, macrolide^R
[34] = Streptococcus pyogenes Micromyx # 985, Susceptible, read-out: MIC

SMILES	MIC [1, 9] [µg/mL]	MIC [1, 10] [µg/mL]	MIC [1, 11] [µg/mL]	MIC [1, 12] [µg/mL]	MIC [2, 13] [µg/mL]	MIC [2, 14] [µg/mL]	MIC [3, 15] [µg/mL]	MIC [3, 18] [µg/mL]	MIC [4, 19] [µg/mL]	MIC [4, 20] [µg/mL]	MIC [4, 21] [µg/mL]	MIC [4, 22] [µg/mL]	MIC [4, 24] [µg/mL]	MIC [4, 26] [µg/mL]	MIC [4, 27] [µg/mL]	MIC [5, 29] [µg/mL]	MIC [5, 31] [µg/mL]	MIC [5, 32] [µg/mL]	MIC [6, 33]	MIC [6, 34] [µg/mL]	further results
CCCCCCCCCC(=O)N[C@@H](Cc1c[nH]c2ccccc12)C(=O)N[C@H](CC(N)=O)C(=O)N[C@@H](CC(=O)O)C(=O)N[C@@H]1C(=O)NCC(=O)N[C@@H](CCCN)C(=O)N[C@@H](CC(=O)O)C(=O)N[C@H](C)C(=O)N[C@@H](CC(=O)O)C(=O)NCC(=O)N[C@H](CO)C(=O)N[C@@H]([C@H](C)CC(=O)O)C(=O)N[C@@H](CC(=O)c2ccccc2N)C(=O)O[C@@H]1C [Daptomycin]	1 (≈ 0.617 µM)	0.5 (≈ 0.309 µM)	0.5 (≈ 0.309 µM)	1 (≈ 0.617 µM)	0.5 (≈ 0.309 µM)	0.5 (≈ 0.309 µM)	≤ 0.12	8 (≈ 4.94 µM)	0.5 (≈ 0.309 µM)	0.25 (≈ 0.154 µM)	0.5 (≈ 0.309 µM)	0.5 (≈ 0.309 µM)	0.25 (≈ 0.154 µM)	0.25 (≈ 0.154 µM)	0.25 (≈ 0.154 µM)	≤ 0.12	≤ 0.12	≤ 0.12	≦0.12 μg/mL	≤ 0.12	MIC [3, 16]: 2 µg/mL (≈ 1.23 µM); MIC [3, 17]: 2 µg/mL (≈ 1.23 µM); MIC [4, 23]: 0.5 µg/mL (≈ 0.309 µM); MIC [4, 25]: 0.5 µg/mL (≈ 0.309 µM); MIC [4, 28]: 1 µg/mL (≈ 0.617 µM); MIC [5, 30]: 0.25 µg/mL (≈ 0.154 µM); MIC, CLSI Recommended Range [7]: 1 to 4 µg/mL; MIC, CLSI Recommended Range [8]: 0.25 to 1 µg/mL
CC(=O)NC[C@H]1CN(c2ccc(N3CCOCC3)c(F)c2)C(=O)O1 [Linezolid, linezolid]	8 (≈ 23.7 µM)	64 (≈ 190 µM)	4 (≈ 11.9 µM)	4 (≈ 11.9 µM)	4 (≈ 11.9 µM)	4 (≈ 11.9 µM)	4 (≈ 11.9 µM)	2 (≈ 5.93 µM)	8 (≈ 23.7 µM)	4 (≈ 11.9 µM)	8 (≈ 23.7 µM)	4 (≈ 11.9 µM)	8 (≈ 23.7 µM)	4 (≈ 11.9 µM)	8 (≈ 23.7 µM)	4 (≈ 11.9 µM)	2 (≈ 5.93 µM)	2 (≈ 5.93 µM)	4 µg/mL (≈ 11.9 µM)	4 (≈ 11.9 µM)	MIC [3, 16]: 4 µg/mL (≈ 11.9 µM); MIC [3, 17]: 4 µg/mL (≈ 11.9 µM); MIC [4, 23]: 4 µg/mL (≈ 11.9 µM); MIC [4, 25]: 64 µg/mL (≈ 190 µM); MIC [4, 28]: 4 µg/mL (≈ 11.9 µM); MIC, CLSI Recommended Range [7]: 1 to 4 µg/mL; MIC, CLSI Recommended Range [8]: 1 to 4 µg/mL
Cc1onc(-c2ccccc2)c1C(=O)N[C@@H]1C(=O)N2[C@@H]1SC(C)(C)[C@@H]2C(=O)O [Oxacillin, oxacillin]	16 (≈ 39.9 µM)	64 (≈ 159 µM)	16 (≈ 39.9 µM)	16 (≈ 39.9 µM)	64 (≈ 159 µM)	≤ 0.12	4 (≈ 9.96 µM)	32 (≈ 79.7 µM)	0.25 (≈ 0.623 µM)	16 (≈ 39.9 µM)	32 (≈ 79.7 µM)	0.5 (≈ 1.25 µM)	32 (≈ 79.7 µM)	0.25 (≈ 0.623 µM)	0.25 (≈ 0.623 µM)	16 (≈ 39.9 µM)	16 (≈ 39.9 µM)	16 (≈ 39.9 µM)	≦0.12 μg/mL	≤ 0.12	MIC ([5]; Streptococcus pneumoniae Micromyx # 375, parC, gyrB): ≤ 0.12 µg/mL; MIC ([5]; Streptococcus pneumoniae Micromyx # 376, parC, gyrA): ≤ 0.12 µg/mL; MIC [5, 30]: ≤ 0.12 µg/mL; MIC, CLSI Recommended Range [7]: 8 to 32 µg/mL; MIC, CLSI Recommended Range [8]: 0.12 to 0.5 µg/mL
